Test results: patent US20130195886A1, “Methods for Fructanase and Fructokinase Inhibition” (The Regents of the University of Colorado, A Body Corporate, priority 2011, published 2013)

Key:
KHKC = biological target: T1, KHKC (Homo sapiens, UniProt P50053); assay: KHKC % inhibition of virtual-screen hits; conditions: for KHKC % Inhibition (10 UM): 10 uM compound; for inhibition at 10 µM: read-out: KHKC % Inhibition (10 µM)
T1 sequence (P50053 1-298): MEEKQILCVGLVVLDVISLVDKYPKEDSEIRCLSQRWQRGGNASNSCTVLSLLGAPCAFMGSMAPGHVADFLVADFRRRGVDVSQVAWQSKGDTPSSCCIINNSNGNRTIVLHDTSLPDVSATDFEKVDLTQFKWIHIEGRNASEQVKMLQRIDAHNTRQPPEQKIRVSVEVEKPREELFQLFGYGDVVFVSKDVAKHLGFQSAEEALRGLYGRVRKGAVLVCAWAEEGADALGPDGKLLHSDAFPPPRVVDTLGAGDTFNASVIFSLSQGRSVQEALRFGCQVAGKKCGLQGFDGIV

KHKA = biological target: T2, KHKA (Homo sapiens, UniProt P50053); assay: KHKA % inhibition of virtual-screen hits; conditions: for inhibition at 10 µM: read-out: KHKA % Inhibition (10 µM)
T2 sequence (P50053 1-298 isoform P50053-2): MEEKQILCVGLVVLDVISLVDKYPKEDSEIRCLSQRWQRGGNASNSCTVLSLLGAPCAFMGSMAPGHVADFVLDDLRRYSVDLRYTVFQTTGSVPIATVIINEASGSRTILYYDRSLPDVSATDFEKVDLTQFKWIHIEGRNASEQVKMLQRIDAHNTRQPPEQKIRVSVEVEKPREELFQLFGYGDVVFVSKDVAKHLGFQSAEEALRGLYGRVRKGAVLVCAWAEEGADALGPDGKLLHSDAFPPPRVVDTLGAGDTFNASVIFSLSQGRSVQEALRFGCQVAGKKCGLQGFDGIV

[1] = tested on: allergy-susceptible mice (lacking the toll-like receptor 4); assay: Experiment 1: peanut food allergy sensitisation and challenge; format: in vivo; conditions: fructose 30% in water added to peanuts plus cholera toxin
mice = format: in vivo; conditions: fructose (30%) vs no fructose, p<0.02 Mann Whitney
[2] = tested on: human intestinal epithelial cells (CaCo-2); assay: fructose exposure of intestinal epithelial cells, polarity and tight junction expression; format: cell-based
wild type (WT) mice = assay: fructose feeding, duodenum quantitative real time PCR; format: in vivo; conditions: 15% fructose water 3 weeks, actin control
Method: In the first set of studies, three-month-old male wild type (WT) mice or fructokinase A/C knockout mice (KHK-A/C KO) (obtained from David Bonthron, Leeds, UK)(72) were administered fructose with normal chow for 3 weeks. […] Due to the different preference for fructose water between WT mice and KHK-A/C KO mice, mice were given 15% or 30% of fructose water, respectively. Both WT mice and KHK-A/C KO mice drank the same amount of fructose (FIG. 4A). For each group, the duodenum was removed after 20 hours of fasting of normal chow and the lining scraped and RNA extracted. Quantitative real time PCR was performed for fructokinase C (KHK-C, FIG. 4B), and tight junction genes occludin (FIG. 4C) and ZO-1 (FIG. 4D) using actin as an internal control.

CSc1nn(-c2ccccc2)cc1-c1nc(-c2ccccc2)cs1 [Cpd 3]
KHKC % Inhibition (10 UM) (KHKC): 19.9%
inhibition at 10 µM (KHKC): 19.9%

CSc1nn(-c2ccccc2)c(N)c1C#N [Cpd 2]
KHKC % Inhibition (100 uM) (KHKC; 100 uM compound): 16.8%
inhibition at 10 µM (KHKC): 7.8%
inhibition at 100 µM (KHKC; read-out: KHKC % Inhibition (100 uM)): 16.8%
KHKA % Inhibition (100 uM) (KHKA; 100 uM compound): 29.4%
inhibition at 10 µM (KHKA): 5.7%
inhibition at 100 µM (KHKA; read-out: KHKA % Inhibition (100 uM)): 29.4%

O=C(CO)[C@@H](O)[C@H](O)[C@H](O)CO [fructose]
fall in temperature, group 3 compared to group 1 [1]: greater fall in temperature
symptoms, group 3 compared to group 1 [1]: numerically worse symptoms
peanut IgE levels (mice): higher
expression of genes involved in the maintenance of cell polarity ([2]; 5 mM fructose): markedly decreased
expression of transmembrane (claudin-4) and scaffolding (ZO-1 and occluding) proteins at the tight junctions ([2]; fructose exposure): substantially down-regulated
localisation of polarity/tight junction proteins (confocal analysis) ([2]; fructose exposure): translocates them intracellularly from the basolateral membrane domain
expression of e-cadherin ([2]; fructose for 96 hours): dramatically down-regulated
KHK mRNA expression (wild type (WT) mice): upregulation
ZO-1 mRNA (wild type (WT) mice): significant decrease
occludin mRNA (wild type (WT) mice): significant decrease

CSc1nn(-c2ccccc2)cc1/C(N)=N/OC(=O)Nc1ccc(OC(F)(F)F)cc1 [Cpd 1]
KHKC % Inhibition (10 UM) (KHKC): 25.6%
inhibition at 10 µM (KHKC): 25.6%
KHKA % Inhibition (10 UM) (KHKA; 10 uM compound): 7.0%
inhibition at 10 µM (KHKA): 7%
